Experimental data as given in ChEMBL document CHEMBL1201862, “PubChem BioAssay data set” (2004).
Active and inactive are the calls of the source.

What was measured:
[1] = tested on: Streptococcus sp. 'group A'; test: growth inhibition of control SK(-) GAS strain, dose response, counter-screen for streptokinase expression inhibitor project, luminescence, kanamycin, BacTiterGlo, confirmation (AID 1900); format: functional, organism-based
Beta-galactosidase = Beta-galactosidase (Escherichia coli, UniProt Q8VNN2); test: PubChem AID 485352; format: functional
Chain of Beta-galactosidase (Q8VNN2 whole entry): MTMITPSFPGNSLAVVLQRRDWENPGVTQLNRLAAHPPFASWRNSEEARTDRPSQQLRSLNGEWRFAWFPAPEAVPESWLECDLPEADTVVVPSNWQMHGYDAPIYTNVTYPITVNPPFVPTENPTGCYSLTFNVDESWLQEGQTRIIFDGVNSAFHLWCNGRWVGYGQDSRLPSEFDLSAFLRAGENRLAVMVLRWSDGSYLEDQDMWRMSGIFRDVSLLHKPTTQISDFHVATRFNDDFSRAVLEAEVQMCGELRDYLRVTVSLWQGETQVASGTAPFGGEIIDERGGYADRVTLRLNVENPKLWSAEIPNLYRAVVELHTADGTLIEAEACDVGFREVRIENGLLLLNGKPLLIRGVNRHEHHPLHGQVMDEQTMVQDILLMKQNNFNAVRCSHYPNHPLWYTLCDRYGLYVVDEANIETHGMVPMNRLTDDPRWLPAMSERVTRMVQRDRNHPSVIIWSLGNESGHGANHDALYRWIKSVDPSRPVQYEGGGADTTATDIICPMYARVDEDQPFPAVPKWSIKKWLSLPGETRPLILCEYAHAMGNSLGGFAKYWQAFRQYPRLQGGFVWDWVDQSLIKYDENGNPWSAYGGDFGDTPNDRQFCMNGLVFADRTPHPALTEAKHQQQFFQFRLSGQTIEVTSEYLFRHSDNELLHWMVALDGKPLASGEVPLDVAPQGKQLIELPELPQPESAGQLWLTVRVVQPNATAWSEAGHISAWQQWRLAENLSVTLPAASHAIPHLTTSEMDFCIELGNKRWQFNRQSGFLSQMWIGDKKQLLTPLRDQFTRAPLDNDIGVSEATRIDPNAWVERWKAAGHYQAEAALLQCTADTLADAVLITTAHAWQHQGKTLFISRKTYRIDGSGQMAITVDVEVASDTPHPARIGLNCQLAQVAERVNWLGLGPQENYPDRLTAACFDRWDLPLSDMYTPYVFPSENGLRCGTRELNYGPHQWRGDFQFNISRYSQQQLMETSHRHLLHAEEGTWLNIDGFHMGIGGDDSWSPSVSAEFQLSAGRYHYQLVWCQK

[2] = inhibitors of intracellular T. cruzi replication, confirmation, NIH3T3 host cells, beta-gal luminescence (AID 2044); format: functional, cell-based;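 note: intracellular parasites grown in NIH/3T3 mouse fibroblasts as host cells; luminescent beta-galactosidase reporter signal from transgenic T. cruzi replicating inside host cells; inhibitors lower the luminescence signal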
[3] = molecular target: T1, Type-1 angiotensin II receptor (Homo sapiens, UniProt P30556); test: AT1 receptor antagonists, dose response, selectivity assay for APJ receptor antagonist project, cell-based, uHTS hits (AID 463214); format: functional;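 note: antagonist potency against angiotensin II stimulated AT1 response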
T1 sequence (P30556 whole entry): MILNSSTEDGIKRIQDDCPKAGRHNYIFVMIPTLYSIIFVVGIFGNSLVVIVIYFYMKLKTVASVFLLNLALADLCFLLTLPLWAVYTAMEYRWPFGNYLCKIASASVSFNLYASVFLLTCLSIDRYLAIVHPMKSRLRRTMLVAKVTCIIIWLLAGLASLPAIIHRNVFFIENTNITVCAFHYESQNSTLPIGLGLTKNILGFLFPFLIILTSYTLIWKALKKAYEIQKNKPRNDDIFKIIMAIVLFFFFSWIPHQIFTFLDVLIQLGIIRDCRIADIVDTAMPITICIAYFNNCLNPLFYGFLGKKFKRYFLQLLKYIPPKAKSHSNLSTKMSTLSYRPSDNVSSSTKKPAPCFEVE

[4] = cytotoxicity toward NIH3T3 fibroblasts, dose response, counter-screen, cell-based, ATP luminescence, mouse fibroblasts (AID 2010); format: functional;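 note: cells exposed to compound for about 90 hours before reading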
Streptococcus = test: Group A Streptococcus viability loss, dose response, counter-screen for streptokinase expression inhibitor project, luminescence, BacTiterGlo (AID 1915); format: functional, organism-based;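 note: potency for reduction of bacterial viability or growth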
[5] = molecular target: DNA dC->dU-editing enzyme APOBEC-3G (Homo sapiens, UniProt Q9HC16); test: Dose Response confirmation of small molecule APOBEC3G DNA Deaminase Inhibitors via a fluorescence-based single-stranded DNA deaminase assay. [Related pubchem assays (depositor defined):AID493012, AID493028]; format: functional
Chain of DNA dC->dU-editing enzyme APOBEC-3G (Q9HC16 whole entry): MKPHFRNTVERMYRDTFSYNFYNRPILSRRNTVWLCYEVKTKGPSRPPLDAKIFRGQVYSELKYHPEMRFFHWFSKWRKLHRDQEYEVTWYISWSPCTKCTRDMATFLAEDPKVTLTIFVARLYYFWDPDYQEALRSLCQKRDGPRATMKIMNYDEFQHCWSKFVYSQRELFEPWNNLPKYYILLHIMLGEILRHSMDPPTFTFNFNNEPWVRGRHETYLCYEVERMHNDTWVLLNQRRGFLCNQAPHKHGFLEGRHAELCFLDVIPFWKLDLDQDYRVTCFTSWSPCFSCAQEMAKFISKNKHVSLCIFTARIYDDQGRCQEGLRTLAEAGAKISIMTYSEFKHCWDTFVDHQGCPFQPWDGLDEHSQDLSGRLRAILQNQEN

INS1 = test: beta cell apoptosis inhibitors, cytokine rescue, dose response, luminescence, retest (AID 449756); format: functional, cell-based; settings: Rattus norvegicus;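 note: cell death triggered by IL-1 beta plus TNF-alpha plus IFN-gamma mixture; protective hits raise ATP signal compared with cytokine alone wells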
[6] = molecular target: T2, Short transient receptor potential channel 4 (Mus musculus, UniProt Q9QUQ5); test: mouse TRPC4 channel activators, dose response, cell-based, HEK293 TRPC4/mu-opioid, Fluo-4 calcium (AID 434937); format: functional
T2 sequence (Q9QUQ5 whole entry): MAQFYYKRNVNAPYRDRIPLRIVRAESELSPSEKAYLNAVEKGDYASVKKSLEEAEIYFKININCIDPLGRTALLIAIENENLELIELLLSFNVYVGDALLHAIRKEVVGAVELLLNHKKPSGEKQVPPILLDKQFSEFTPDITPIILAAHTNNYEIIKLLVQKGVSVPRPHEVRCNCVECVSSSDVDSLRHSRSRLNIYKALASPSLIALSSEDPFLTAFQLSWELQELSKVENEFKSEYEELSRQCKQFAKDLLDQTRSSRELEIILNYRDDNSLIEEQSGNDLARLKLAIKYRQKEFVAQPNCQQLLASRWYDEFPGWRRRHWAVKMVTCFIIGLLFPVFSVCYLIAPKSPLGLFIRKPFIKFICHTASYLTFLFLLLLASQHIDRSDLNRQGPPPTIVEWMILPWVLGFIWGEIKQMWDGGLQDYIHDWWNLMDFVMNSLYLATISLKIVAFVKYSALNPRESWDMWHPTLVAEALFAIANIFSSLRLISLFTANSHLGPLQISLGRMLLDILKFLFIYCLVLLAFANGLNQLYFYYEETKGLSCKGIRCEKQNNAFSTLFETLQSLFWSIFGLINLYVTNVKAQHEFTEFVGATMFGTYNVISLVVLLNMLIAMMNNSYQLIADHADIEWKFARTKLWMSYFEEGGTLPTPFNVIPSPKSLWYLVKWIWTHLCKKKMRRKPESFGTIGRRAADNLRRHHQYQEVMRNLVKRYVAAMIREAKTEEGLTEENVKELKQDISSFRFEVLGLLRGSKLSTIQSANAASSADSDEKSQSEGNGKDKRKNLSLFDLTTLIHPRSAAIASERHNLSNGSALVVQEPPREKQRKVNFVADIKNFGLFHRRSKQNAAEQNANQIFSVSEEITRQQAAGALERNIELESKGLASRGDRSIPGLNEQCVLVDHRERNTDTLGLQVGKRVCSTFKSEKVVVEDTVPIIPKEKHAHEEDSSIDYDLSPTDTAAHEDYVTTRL

[7] = molecular target: T3, High affinity choline transporter 1 (Homo sapiens, UniProt Q9GZV3); test: CHT inhibitors, dose response, cell-based, 5-point CRC, membrane potential dye (AID 504840); format: functional
T3 sequence (Q9GZV3 whole entry): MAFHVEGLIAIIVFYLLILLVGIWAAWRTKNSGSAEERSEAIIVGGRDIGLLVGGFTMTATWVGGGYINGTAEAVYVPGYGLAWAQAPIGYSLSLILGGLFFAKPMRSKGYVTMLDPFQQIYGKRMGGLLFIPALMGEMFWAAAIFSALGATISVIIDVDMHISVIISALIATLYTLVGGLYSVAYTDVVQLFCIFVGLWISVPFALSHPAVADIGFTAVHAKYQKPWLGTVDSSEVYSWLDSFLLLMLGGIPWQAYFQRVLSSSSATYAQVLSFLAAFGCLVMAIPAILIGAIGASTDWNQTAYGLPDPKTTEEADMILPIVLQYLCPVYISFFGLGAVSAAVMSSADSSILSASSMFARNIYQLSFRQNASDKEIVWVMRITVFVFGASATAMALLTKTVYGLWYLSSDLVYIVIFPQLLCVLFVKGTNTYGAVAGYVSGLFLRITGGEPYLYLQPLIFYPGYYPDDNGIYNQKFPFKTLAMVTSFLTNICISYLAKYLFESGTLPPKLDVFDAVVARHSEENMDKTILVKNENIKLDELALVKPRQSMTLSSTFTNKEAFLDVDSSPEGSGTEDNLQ

[8] = Vero cell cytotoxicity, dose response, cytotoxicity control for Vif-APOBEC3G degradation inhibitor project, Vero cells (AID 1117358); format: functional; settings: Human immunodeficiency virus 1, Vero
Streptokinase A = molecular target: T4, Streptokinase A (Streptococcus pyogenes serotype M1, UniProt P10520); test: S. pyogenes streptokinase expression inhibitors, potency, dose response, plasminogen activation absorbance, OD405 (AID 1914); format: functional, Streptococcus pyogenes M1 GAS;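 note: secreted streptokinase activity via plasminogen activation per viability signal from cell pellet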
T4 sequence (P10520 whole entry): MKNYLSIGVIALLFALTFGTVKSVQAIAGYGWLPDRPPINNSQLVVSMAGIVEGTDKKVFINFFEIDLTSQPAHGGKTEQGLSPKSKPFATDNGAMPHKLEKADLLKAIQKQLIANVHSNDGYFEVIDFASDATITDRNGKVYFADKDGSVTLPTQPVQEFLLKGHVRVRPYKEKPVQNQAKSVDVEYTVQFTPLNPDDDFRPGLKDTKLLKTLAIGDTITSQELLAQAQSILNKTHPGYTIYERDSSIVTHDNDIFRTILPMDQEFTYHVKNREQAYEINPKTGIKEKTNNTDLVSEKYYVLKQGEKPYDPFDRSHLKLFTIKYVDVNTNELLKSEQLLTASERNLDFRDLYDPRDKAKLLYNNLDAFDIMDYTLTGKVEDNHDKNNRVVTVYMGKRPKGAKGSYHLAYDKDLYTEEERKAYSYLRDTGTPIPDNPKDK

[9] = THP-1 cell cytotoxicity, dose response, cytotoxicity control for non-replicating M. tuberculosis project (AID 489025); format: functional
[10] = molecular target: T2, Short transient receptor potential channel 4; test: mouse TRPC4 channel inhibitors, dose response, cell-based, HEK293 TRPC4/mu-opioid, Fluo-4 calcium (AID 434942); format: functional;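 note: potency of inhibitors blocking the TRPC4 calcium response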
[11] = Vero E6 cell cytotoxicity, dose response, cytotoxicity control for non-replicating M. tuberculosis project, secondary assay (AID 492998); format: functional, VeroE6; settings: Vero C1008
cells = format: functional
[12] = HEp-2 cell cytotoxicity, dose response, cytotoxicity control for RSV inhibitor project, HTS (AID 2410); format: functional; settings: human respiratory syncytial virus
[13] = molecular target: T5, Heat shock factor protein 1 (Mus musculus, UniProt P38532); test: HSF1 potentiators in luciferase reporter cells, confirmation, cell-based, NIH3T3, luminescence, dose retest (AID 435004); format: functional;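 note: stress induced by proteasome inhibitor MG132 added 30 min after compound; luciferase reporter driven by HSF1 response element in NIH3T3 cells; actives raise luminescence as potentiators of the MG132 stress response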
T5 sequence (P38532 whole entry): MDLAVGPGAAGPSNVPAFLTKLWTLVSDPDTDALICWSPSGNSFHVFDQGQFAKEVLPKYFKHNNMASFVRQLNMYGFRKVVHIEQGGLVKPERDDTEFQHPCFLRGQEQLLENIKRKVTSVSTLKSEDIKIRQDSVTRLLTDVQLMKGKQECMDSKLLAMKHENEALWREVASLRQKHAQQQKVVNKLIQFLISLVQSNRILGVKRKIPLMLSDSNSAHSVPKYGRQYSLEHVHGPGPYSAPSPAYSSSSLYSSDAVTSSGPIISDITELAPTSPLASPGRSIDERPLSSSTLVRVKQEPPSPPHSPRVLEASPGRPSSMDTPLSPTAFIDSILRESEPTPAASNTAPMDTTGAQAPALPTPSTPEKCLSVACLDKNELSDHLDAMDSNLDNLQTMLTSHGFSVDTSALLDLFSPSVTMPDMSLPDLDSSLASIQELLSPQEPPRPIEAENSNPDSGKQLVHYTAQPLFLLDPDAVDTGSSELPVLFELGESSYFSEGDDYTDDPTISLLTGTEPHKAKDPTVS

[14] = molecular target: G-protein coupled receptor 55 (Homo sapiens, UniProt Q9Y2T6); test: GPR55 agonists via beta-arrestin recruitment, primary screen, imaging, U2OS cells, beta-arrestin-GFP redistribution (AID 1961); format: functional
Chain of G-protein coupled receptor 55 (Q9Y2T6 whole entry): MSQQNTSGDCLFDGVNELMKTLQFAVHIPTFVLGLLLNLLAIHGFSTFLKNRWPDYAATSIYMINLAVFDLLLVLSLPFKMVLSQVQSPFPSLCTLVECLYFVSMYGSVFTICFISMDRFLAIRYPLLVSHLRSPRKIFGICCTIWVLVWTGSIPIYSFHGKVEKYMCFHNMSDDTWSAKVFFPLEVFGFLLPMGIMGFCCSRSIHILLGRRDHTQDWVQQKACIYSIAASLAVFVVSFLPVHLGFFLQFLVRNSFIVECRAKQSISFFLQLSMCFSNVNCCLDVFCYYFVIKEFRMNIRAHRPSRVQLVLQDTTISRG

CAAX prenyl protease 2 [15] = molecular target: T6, CAAX prenyl protease 2 (Saccharomyces cerevisiae S288c, UniProt Q03530); format: biochemical
T6 sequence (Q03530 whole entry): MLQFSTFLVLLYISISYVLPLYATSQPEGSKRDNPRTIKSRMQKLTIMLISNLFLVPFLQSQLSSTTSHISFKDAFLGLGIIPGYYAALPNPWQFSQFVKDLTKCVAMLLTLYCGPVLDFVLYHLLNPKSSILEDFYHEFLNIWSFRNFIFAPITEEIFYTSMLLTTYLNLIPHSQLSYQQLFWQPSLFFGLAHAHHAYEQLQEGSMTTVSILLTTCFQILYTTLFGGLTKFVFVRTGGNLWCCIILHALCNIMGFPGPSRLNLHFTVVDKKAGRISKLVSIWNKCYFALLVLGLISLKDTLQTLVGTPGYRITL

CAAX prenyl protease 2 [16] = molecular target: T7, CAAX prenyl protease 2 (Homo sapiens, UniProt Q9Y256); test: human Rce1 protease inhibitors, dose response, biochemical, yeast membranes, quenched-peptide fluorescence, cherry-pick (AID 588849)
T7 sequence (Q9Y256 whole entry): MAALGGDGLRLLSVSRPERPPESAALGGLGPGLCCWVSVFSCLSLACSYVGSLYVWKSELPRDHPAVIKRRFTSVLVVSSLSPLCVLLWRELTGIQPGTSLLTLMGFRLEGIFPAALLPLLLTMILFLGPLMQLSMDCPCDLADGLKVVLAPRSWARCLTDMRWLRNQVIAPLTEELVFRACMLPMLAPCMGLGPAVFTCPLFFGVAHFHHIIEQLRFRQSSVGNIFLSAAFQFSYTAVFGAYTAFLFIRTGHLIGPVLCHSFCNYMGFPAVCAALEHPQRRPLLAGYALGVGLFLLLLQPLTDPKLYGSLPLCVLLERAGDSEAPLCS

[17] = molecular target: Eukaryotic translation initiation factor 4E (Mus musculus, UniProt P63073); test: eIF4E–eIF4G protein interaction inhibitors, dose response, biochemical, TR-FRET (AID 855); format: functional;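 note: potency for disrupting eIF4E binding to eIF4GI seen as loss of FRET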
Chain of Eukaryotic translation initiation factor 4E (P63073 whole entry): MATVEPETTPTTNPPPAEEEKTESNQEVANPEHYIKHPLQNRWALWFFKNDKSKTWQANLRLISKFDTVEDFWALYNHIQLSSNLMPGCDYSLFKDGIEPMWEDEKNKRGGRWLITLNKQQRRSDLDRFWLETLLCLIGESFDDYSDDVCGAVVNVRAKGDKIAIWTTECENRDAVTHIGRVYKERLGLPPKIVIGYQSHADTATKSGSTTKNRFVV

O=C(Nc1nc(-c2ccccn2)cs1)Nc1ccc(F)cc1F
EC50 [1]: 1.16 µM (active)
EC50 (Beta-galactosidase): > 40 µM (inactive)
EC50 [2]: 0.9 µM (active)
IC50 [3]: 18.8 µM (active)
EC50 [4]: 8.78 µM (active)
EC50 (Streptococcus): 2.33 µM (active)
IC50 [5]: 65.9 µM (active)
AC50 (INS1): 3.4 µM (active)

CNS(=O)(=O)c1cccc(C(=O)OCC(=O)c2ccc(S(=O)(=O)N3CCCCC3)cc2)c1
EC50 (Beta-galactosidase): > 40 µM (inactive)
IC50 [3]: 18.8 µM (active)

CCN1CCN(c2ccc(S(=O)(=O)N3CCOCC3)cc2NC(=O)c2ccccc2SC)CC1
EC50 [6]: 0.421 µM (active)

CN1CCN(S(=O)(=O)c2ccc(NC(=O)Nc3cccc(Cl)c3)cc2)CC1
IC50 [7]: 13.2 µM (active)
CC50 [8]: > 40 µM (active)

Cc1ccc(C(=O)Nc2nnc(C3=COCCO3)o2)cc1C
EC50 [1]: 5.17 µM (active)
EC50 (Streptokinase A): > 150 µM (not active)
EC50 (Streptococcus): 15.5 µM (active)
CC50 [9]: > 40 µM (active)
EC50 [10]: 0.421 µM (active)
CC50 [11]: > 20 µM (active)
IC50 (cells): 2.03 µM (active)

CCOC(=O)C(=Cc1c[nH]c2ccc(S(=O)(=O)N(C)C)cc12)C(=O)OCC
CC50 [12]: 13.4 µM (active)
EC50 [13]: 45.3 µM (active)
IC50 [7]: 15.8 µM (active)

COc1cc2ccccc2cc1C(=O)NCC(c1cccs1)N(C)C (stereo not drawn)
EC50 [6]: 0.944 µM (active)

CCc1ccc(Nc2n[n+](-c3ccccc3)c(/C=C/c3ccccc3)s2)cc1
EC50 [14]: 1.59 µM (active)
AC50 (CAAX prenyl protease 2 [15]): 0.634 µM (active)
AC50 (CAAX prenyl protease 2 [16]): 23.8 µM (active)

CC(/C=N\NC(=O)CN1CCN(S(=O)(=O)c2ccc(C)cc2)CC1)=C\c1ccccc1
AC50 (CAAX prenyl protease 2 [15]): 4.3 µM (active)
IC50 [17]: > 64 µM (inactive)
AC50 (CAAX prenyl protease 2 [16]): 59.3 µM (active)

Cc1cccc2c1NC(=O)C2=Nc1ccc(Cl)cc1
EC50 (Beta-galactosidase): > 40 µM (inactive)
IC50 [3]: 27.9 µM (not active)

NC(=O)C1CCCN(CCc2ccccc2)C1 (stereo not drawn)
EC50 [6]: 0.06 µM (active)
